US20080009418A1, “Selective Inhibitors” (Alchemia LTD., priority 2004, published 2008)

Experiments:
Details in all cases: compound at 10 μM
[1] = target: T1, Human neurokinin (NK1) (Homo sapiens, UniProt P25103); assay: Radioligand binding, human neurokinin NK1 membranes, filtration, [125I]-Substance P
T1 construct: purchased Perkin Elmer Biosignal
Summary of the method: (§1)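 Membranes from cloned human receptors were incubated with compound and radioligand for 1 hour at room temperature. Bound ligand was collected on 0.3% PEI-soaked filters, washed with cold 50 mM Tris-HCl pH 7.4, and counted by scintillation. Percent inhibition was computed against DMSO totals and reference-ligand nonspecific wells.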

[2] = target: T2, Human Melanocortin (MC4) (Homo sapiens, UniProt P32245); assay: Radioligand binding, human melanocortin MC4 membranes, FlashPlate, [125I]-NDP-αMSH
T2 construct: purchased Perkin Elmer Biosignal
T2 sequence (P32245 whole entry): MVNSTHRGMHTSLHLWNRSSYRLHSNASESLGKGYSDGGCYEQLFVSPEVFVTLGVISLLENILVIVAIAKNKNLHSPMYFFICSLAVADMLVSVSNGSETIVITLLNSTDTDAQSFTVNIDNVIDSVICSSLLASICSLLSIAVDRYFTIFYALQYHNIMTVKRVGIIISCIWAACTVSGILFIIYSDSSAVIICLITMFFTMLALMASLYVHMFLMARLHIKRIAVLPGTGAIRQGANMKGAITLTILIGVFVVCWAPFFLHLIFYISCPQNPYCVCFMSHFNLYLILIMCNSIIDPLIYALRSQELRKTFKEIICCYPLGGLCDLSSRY
Summary of the method: (§2)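 Cloned human receptor membranes were coated onto FlashPlate wells and incubated with radioligand and compound (added from a 0.5 mM DMSO daughter plate) for 1 hour at room temperature in the dark. Scintillation counting gave percent inhibition, with DMSO defining total and reference ligand defining non-specific binding.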

[3] = target: T3, Mouse urotensin (mUR2) (Mus musculus, UniProt Q8VIH9); assay: Radioligand binding, mouse urotensin mUR2 membranes, FlashPlate, [125I]-Urotensin II
T3 construct: purchased Perkin Elmer Biosignal
T3 sequence (Q8VIH9 1-385): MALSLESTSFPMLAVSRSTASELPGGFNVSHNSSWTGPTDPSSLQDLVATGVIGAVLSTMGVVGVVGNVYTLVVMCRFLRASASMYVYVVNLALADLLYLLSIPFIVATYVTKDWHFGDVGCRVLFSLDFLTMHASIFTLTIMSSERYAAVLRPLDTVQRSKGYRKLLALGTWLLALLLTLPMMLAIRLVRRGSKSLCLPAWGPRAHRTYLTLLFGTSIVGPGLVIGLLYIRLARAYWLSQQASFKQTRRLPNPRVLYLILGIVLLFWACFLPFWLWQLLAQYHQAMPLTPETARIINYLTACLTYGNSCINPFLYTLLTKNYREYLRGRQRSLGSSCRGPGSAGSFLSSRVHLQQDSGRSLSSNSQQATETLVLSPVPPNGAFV
Summary of the method: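 Cloned mouse urotensin (mUR2) receptor membranes from Perkin Elmer Biosignal were immobilized in FlashPlate microplates using a proprietary coating. Each well got 19.5 μl buffer, then 0.5 μl of DMSO, reference ligand, or compound. Adding 5 μl of [125I]-Urotensin II, diluted to 5× final concentration in binding buffer, started binding. Plates were sealed with TopSeal-A and incubated 1 hour at room temperature in the dark. Wells were counted for 30 seconds each on a TopCount after a 60-second delay, and percentage inhibition was calculated.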

[4] = target: T4, Human melanin-concentrating hormone (MCH1) (Homo sapiens, UniProt Q99705); assay: Radioligand binding, human melanin-concentrating hormone MCH1 membranes, FlashPlate, [125I]-S36057
T4 construct: purchased Perkin Elmer Biosignal
T4 sequence (Q99705 whole entry): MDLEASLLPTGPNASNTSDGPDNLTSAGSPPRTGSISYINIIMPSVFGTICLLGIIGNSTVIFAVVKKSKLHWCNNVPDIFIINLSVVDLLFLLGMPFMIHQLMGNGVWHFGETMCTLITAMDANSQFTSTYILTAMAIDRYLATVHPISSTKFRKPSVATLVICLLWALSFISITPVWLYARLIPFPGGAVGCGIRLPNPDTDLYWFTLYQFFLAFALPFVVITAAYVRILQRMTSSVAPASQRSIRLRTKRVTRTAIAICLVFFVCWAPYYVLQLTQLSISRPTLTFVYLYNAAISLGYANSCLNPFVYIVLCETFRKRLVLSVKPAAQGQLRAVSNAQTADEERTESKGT
Summary of the method: as §2

[5] = target: T5, Human neuropeptide Y (NPY-Y1) (Homo sapiens, UniProt P25929); assay: Radioligand binding, human neuropeptide Y NPY-Y1 membranes, FlashPlate, [125I]-PYY
T5 construct: purchased Perkin Elmer Biosignal
T5 sequence (P25929 1-384): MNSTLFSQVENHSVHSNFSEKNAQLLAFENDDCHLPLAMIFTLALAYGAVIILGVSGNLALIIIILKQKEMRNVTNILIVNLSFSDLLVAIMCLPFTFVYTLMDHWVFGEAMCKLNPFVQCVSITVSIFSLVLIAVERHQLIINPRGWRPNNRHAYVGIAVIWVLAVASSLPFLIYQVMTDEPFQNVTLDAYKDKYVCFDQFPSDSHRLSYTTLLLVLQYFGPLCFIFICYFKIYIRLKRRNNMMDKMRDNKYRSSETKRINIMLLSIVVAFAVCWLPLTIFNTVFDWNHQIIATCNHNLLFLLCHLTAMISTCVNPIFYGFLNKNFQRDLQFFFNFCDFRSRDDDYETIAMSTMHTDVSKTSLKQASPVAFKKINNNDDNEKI
Summary of the method: as §2

[6] = target: T6, Human melanocortin (MC5) (Homo sapiens, UniProt P33032); assay: Radioligand binding, human melanocortin MC5 membranes, FlashPlate, [125I]-NDP-αMSH
T6 construct: purchased Perkin Elmer Biosignal
T6 sequence (P33032 whole entry): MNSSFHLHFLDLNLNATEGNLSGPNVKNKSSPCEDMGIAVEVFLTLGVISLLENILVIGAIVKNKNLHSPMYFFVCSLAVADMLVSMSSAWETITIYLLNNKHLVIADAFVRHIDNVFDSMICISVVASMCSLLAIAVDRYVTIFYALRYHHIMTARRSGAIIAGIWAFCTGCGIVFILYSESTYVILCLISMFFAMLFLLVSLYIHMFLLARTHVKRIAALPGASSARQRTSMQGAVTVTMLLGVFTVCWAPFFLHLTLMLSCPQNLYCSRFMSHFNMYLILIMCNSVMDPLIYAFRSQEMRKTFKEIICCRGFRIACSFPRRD
Summary of the method: as §2

[7] = target: T7, Human κ-Opioid (KOP) (Homo sapiens, UniProt P41145); assay: Radioligand binding, human κ-opioid (KOP) membranes, filtration, [3H]-Diprenorphine
T7 construct: purchased Perkin Elmer Biosignal
T7 sequence (P41145 whole entry): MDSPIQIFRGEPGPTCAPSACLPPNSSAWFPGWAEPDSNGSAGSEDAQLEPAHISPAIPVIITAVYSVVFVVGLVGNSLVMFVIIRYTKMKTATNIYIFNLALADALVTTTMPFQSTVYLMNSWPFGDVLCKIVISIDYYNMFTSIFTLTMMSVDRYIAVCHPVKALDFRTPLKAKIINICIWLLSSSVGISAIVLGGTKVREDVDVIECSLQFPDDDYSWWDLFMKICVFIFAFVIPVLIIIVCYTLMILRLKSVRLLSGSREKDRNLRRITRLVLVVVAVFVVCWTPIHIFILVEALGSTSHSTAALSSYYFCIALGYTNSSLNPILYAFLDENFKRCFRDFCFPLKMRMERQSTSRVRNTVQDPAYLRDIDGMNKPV
Summary of the method: as §1

[8] = target: T8, Human opioid (ORL1) (Homo sapiens, UniProt P41146); assay: Radioligand binding, human opioid ORL1 membranes, FlashPlate, [125I]-Nociceptin
T8 construct: purchased Perkin Elmer Biosignal
T8 sequence (P41146 whole entry): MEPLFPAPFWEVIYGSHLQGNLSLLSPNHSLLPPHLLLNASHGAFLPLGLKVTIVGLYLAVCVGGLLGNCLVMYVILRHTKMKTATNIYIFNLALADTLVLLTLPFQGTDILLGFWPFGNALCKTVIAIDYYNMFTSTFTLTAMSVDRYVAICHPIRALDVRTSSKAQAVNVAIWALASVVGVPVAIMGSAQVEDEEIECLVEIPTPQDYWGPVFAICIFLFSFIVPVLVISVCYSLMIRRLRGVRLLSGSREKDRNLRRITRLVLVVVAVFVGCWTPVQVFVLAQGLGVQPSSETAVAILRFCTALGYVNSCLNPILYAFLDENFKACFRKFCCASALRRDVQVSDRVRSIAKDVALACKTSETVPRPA
Summary of the method: as §2

[9] = target: T9, Human δ-opioid (DOP) (Homo sapiens, UniProt P41143); assay: Radioligand binding, human δ-opioid (DOP) membranes, FlashPlate, [3H]-Bremazocine
T9 construct: purchased Perkin Elmer Biosignal
T9 sequence (P41143 whole entry): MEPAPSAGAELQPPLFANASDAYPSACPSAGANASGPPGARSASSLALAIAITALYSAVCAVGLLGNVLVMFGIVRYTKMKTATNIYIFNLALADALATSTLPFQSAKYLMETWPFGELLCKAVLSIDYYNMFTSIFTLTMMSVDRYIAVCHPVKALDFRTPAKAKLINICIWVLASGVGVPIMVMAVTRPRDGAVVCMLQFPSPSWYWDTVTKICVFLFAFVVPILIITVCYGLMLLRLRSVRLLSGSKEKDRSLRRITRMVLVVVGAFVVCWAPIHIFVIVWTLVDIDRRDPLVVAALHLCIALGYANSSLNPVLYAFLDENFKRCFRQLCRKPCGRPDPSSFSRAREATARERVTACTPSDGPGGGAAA
Summary of the method: as §2

[10] = target: T10, Human μ-opioid (MOP) (Homo sapiens, UniProt P35372); assay: Radioligand binding, human μ-opioid (MOP) membranes, FlashPlate, [3H]-Naloxone
T10 construct: purchased Perkin Elmer Biosignal
T10 sequence (P35372 whole entry): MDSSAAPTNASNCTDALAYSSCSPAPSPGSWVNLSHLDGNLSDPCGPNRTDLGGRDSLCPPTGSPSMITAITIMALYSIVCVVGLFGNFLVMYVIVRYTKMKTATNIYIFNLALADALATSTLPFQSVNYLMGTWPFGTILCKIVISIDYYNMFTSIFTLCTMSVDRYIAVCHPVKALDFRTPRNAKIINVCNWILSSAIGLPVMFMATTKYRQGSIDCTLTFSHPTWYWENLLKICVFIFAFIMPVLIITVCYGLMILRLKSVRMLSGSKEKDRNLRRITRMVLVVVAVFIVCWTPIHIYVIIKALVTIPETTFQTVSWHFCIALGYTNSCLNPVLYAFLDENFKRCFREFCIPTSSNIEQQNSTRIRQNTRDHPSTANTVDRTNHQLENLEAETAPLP
Summary of the method: as §2

[11] = target: T11, Human Melanocortin (MC3) (Homo sapiens, UniProt P41968); assay: Radioligand binding, human melanocortin MC3 membranes, FlashPlate, [125I]-NDP-αMSH
T11 construct: purchased Perkin Elmer Biosignal
T11 sequence (P41968 whole entry): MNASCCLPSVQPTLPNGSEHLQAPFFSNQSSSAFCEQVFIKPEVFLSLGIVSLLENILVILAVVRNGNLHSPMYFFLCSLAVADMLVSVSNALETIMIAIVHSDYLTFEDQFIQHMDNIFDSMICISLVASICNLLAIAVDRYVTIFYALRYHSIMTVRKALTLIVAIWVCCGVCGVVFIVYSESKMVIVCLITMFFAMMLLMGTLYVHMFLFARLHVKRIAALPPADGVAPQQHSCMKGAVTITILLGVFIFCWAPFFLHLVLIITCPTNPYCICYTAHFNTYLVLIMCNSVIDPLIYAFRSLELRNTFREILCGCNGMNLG
Summary of the method: as §2

[12] = [125I]-Substance P, human NK1 membranes
[13] = [125I]-NDP-αMSH, human MC4 membranes
[14] = [125I]-Urotensin II, mouse mUR2 membranes
[15] = [125I]-S36057, human MCH1 membranes
[16] = [125I]-PYY, human NPY-Y1 membranes
[17] = [125I]-NDP-αMSH, human MC5 membranes
[18] = [3H]-Diprenorphine, human KOP membranes
[19] = [125I]-Nociceptin, human ORL1 membranes
[20] = [3H]-Bremazocine, human DOP membranes
[21] = [3H]-Naloxone, human MOP membranes
[22] = [125I]-NDP-αMSH, human MC3 membranes

T1 sequence (P25103 whole entry): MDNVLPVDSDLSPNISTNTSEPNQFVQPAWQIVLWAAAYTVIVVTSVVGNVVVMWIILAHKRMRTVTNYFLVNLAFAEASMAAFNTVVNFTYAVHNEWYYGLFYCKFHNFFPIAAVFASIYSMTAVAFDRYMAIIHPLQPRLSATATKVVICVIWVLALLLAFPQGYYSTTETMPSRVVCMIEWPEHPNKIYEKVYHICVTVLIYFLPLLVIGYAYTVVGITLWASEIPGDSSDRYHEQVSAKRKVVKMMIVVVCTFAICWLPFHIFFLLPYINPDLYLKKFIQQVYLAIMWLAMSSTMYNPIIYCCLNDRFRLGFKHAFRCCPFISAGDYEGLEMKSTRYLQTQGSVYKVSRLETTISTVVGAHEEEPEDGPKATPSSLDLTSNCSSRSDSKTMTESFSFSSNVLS

## NCCC(=O)NC1C(OCc2ccc(Cl)cc2)OC(COCc2ccc(Cl)cc2)C(O)C1OCc1ccc(Cl)cc1 (single isomer, unassigned) [compound 475]
[1]; [12]
  A8: inhibition of radioligand binding: + (“+” indicates greater than 50% inhibition at 10 μM)
[2]; [13]
  A4: inhibition of radioligand binding: + (“+” indicates greater than 50% inhibition at 10 μM)
[3]; [14]
  A11: inhibition of radioligand binding: − (“−” indicates less than 50% inhibition at 10 μM)
[4]; [15]
  A6: inhibition of radioligand binding: − (“−” indicates less than 50% inhibition at 10 μM)
[5]; [16]
  A9: inhibition of radioligand binding: − (“−” indicates less than 50% inhibition at 10 μM)
[6]; [17]
  A5: inhibition of radioligand binding: + (“+” indicates greater than 50% inhibition at 10 μM)
[7]; [18]
  A2: inhibition of radioligand binding: − (“−” indicates less than 50% inhibition at 10 μM)
[8]; [19]
  A10: inhibition of radioligand binding: − (“−” indicates less than 50% inhibition at 10 μM)
[9]; [20]
  A1: inhibition of radioligand binding: − (“−” indicates less than 50% inhibition at 10 μM)
[10]; [21]
  A7: inhibition of radioligand binding: − (“−” indicates less than 50% inhibition at 10 μM)
[11]; [22]
  A3: inhibition of radioligand binding: − (“−” indicates less than 50% inhibition at 10 μM)

## COCC1OC(OCCc2ccccc2)C(NC(=O)CCCNC(=N)N)C(OCc2ccc3ccccc3c2)C1O (stereo not shown) [compound 229]
[1]; [125I]-Substance P, filtration
  A8: inhibition of radioligand binding: + (“+” indicates greater than 50% inhibition at 10 μM)
[2]; [125I]-NDP-αMSH, FlashPlate
  A4: inhibition of radioligand binding: + (“+” indicates greater than 50% inhibition at 10 μM)
[3]; [125I]-Urotensin II, FlashPlate
  A11: inhibition of radioligand binding: − (“−” indicates less than 50% inhibition at 10 μM)
[4]; [125I]-S36057, FlashPlate
  A6: inhibition of radioligand binding: + (“+” indicates greater than 50% inhibition at 10 μM)
[5]; [125I]-PYY, FlashPlate
  A9: inhibition of radioligand binding: − (“−” indicates less than 50% inhibition at 10 μM)
[6]; [125I]-NDP-αMSH, FlashPlate
  A5: inhibition of radioligand binding: + (“+” indicates greater than 50% inhibition at 10 μM)
[7]; [3H]-Diprenorphine, filtration
  A2: inhibition of radioligand binding: − (“−” indicates less than 50% inhibition at 10 μM)
[8]; [125I]-Nociceptin, FlashPlate
  A10: inhibition of radioligand binding: − (“−” indicates less than 50% inhibition at 10 μM)
[9]; [3H]-Bremazocine, FlashPlate
  A1: inhibition of radioligand binding: − (“−” indicates less than 50% inhibition at 10 μM)
[10]; [3H]-Naloxone, FlashPlate
  A7: inhibition of radioligand binding: − (“−” indicates less than 50% inhibition at 10 μM)
[11]; [125I]-NDP-αMSH, FlashPlate
  A3: inhibition of radioligand binding: − (“−” indicates less than 50% inhibition at 10 μM)

## NCCC(=O)NC1C(OCc2ccc3ccccc3c2)OC(COCc2ccc(Cl)cc2)C(O)C1OCc1ccc2ccccc2c1 (stereo not shown) [compound 386]
[1]; [12]
  A8: inhibition of radioligand binding: + (“+” indicates greater than 50% inhibition at 10 μM)
[2]; [13]
  A4: inhibition of radioligand binding: + (“+” indicates greater than 50% inhibition at 10 μM)
[3]; [14]
  A11: inhibition of radioligand binding: − (“−” indicates less than 50% inhibition at 10 μM)
[4]; [15]
  A6: inhibition of radioligand binding: − (“−” indicates less than 50% inhibition at 10 μM)
[5]; [16]
  A9: inhibition of radioligand binding: − (“−” indicates less than 50% inhibition at 10 μM)
[6]; [17]
  A5: inhibition of radioligand binding: + (“+” indicates greater than 50% inhibition at 10 μM)
[7]; [18]
  A2: inhibition of radioligand binding: − (“−” indicates less than 50% inhibition at 10 μM)
[8]; [19]
  A10: inhibition of radioligand binding: − (“−” indicates less than 50% inhibition at 10 μM)
[9]; [20]
  A1: inhibition of radioligand binding: − (“−” indicates less than 50% inhibition at 10 μM)
[10]; [21]
  A7: inhibition of radioligand binding: − (“−” indicates less than 50% inhibition at 10 μM)
[11]; [22]
  A3: inhibition of radioligand binding: + (“+” indicates greater than 50% inhibition at 10 μM)

## CSC1O[C@H](COCc2ccccc2)[C@@H](O)[C@@H](OCc2ccc(-c3ccccc3)cc2)[C@H]1NC(=O)CNC(=N)N (stereo partly shown) [compound 284]
[1]; [125I]-Substance P
  A8: inhibition of radioligand binding, human neurokinin (NK1): + (“+” indicates greater than 50% inhibition at 10 μM)
[2]; [125I]-NDP-αMSH
  A4: inhibition of radioligand binding, human melanocortin (MC4): + (“+” indicates greater than 50% inhibition at 10 μM)
[3]; [125I]-Urotensin II
  A11: inhibition of radioligand binding, mouse urotensin (mUR2): − (“−” indicates less than 50% inhibition at 10 μM)
[4]; [125I]-S36057
  A6: inhibition of radioligand binding, human melanin-concentrating hormone (MCH1): − (“−” indicates less than 50% inhibition at 10 μM)
[5]; [125I]-PYY
  A9: inhibition of radioligand binding, human neuropeptide Y (NPY-Y1): − (“−” indicates less than 50% inhibition at 10 μM)
[6]; [125I]-NDP-αMSH
  A5: inhibition of radioligand binding, human melanocortin (MC5): + (“+” indicates greater than 50% inhibition at 10 μM)
[7]; [3H]-Diprenorphine
  A2: inhibition of radioligand binding, human κ-opioid (KOP): − (“−” indicates less than 50% inhibition at 10 μM)
[8]; [125I]-Nociceptin
  A10: inhibition of radioligand binding, human opioid (ORL1): − (“−” indicates less than 50% inhibition at 10 μM)
[9]; [3H]-Bremazocine
  A1: inhibition of radioligand binding, human δ-opioid (DOP): − (“−” indicates less than 50% inhibition at 10 μM)
[10]; [3H]-Naloxone
  A7: inhibition of radioligand binding, human μ-opioid (MOP): − (“−” indicates less than 50% inhibition at 10 μM)
[11]; [125I]-NDP-αMSH
  A3: inhibition of radioligand binding, human melanocortin (MC3): − (“−” indicates less than 50% inhibition at 10 μM)

## COC[C@H]1OC(OCc2ccc(Cl)cc2)[C@H](NC(=O)CNC(=N)N)[C@@H](OCc2ccc(-c3ccccc3)cc2)[C@@H]1O (stereo partly shown) [compound 28]
[1]; human neurokinin NK1 membranes
  A8 radioligand binding inhibition: + (“+” indicates greater than 50% inhibition at 10 μM)
[2]; human melanocortin MC4 membranes
  A4 radioligand binding inhibition: + (“+” indicates greater than 50% inhibition at 10 μM)
[3]; mouse urotensin mUR2 membranes
  A11 radioligand binding inhibition: − (“−” indicates less than 50% inhibition at 10 μM)
[4]; human MCH1 membranes
  A6 radioligand binding inhibition: + (“+” indicates greater than 50% inhibition at 10 μM)
[5]; human NPY-Y1 membranes
  A9 radioligand binding inhibition: − (“−” indicates less than 50% inhibition at 10 μM)
[6]; human melanocortin MC5 membranes
  A5 radioligand binding inhibition: + (“+” indicates greater than 50% inhibition at 10 μM)
[7]; human κ-opioid (KOP) membranes
  A2 radioligand binding inhibition: − (“−” indicates less than 50% inhibition at 10 μM)
[8]; human ORL1 membranes
  A10 radioligand binding inhibition: − (“−” indicates less than 50% inhibition at 10 μM)
[9]; human δ-opioid (DOP) membranes
  A1 radioligand binding inhibition: − (“−” indicates less than 50% inhibition at 10 μM)
[10]; human μ-opioid (MOP) membranes
  A7 radioligand binding inhibition: − (“−” indicates less than 50% inhibition at 10 μM)
[11]; human melanocortin MC3 membranes
  A3 radioligand binding inhibition: − (“−” indicates less than 50% inhibition at 10 μM)
